Source: patent US5153352A, “Process for preparation of intermediates of carbocyclic nucleoside analogs” (priority 1990, dated 1992)

Columns and labels:
[1] = compound cytotoxicity in ATH8 cells (HIV CPE inhibition assay); assay type: cell-based; settings: human, read-out: MTC
Experimental: (§1) The ATH8 human T-cell line expresses high levels of the CD4 surface antigen and is quite sensitive to the cytopathogenic effect (CPE) of HIV. The cells were propagated in RPMI 1640 medium supplemented with 4mM glutamine, 15% heat-inactivated fetal bovine serum (Biocell), antibiotics (50 units of penicillin and […] of streptomycin per ml), and 50 units of recombinant-derived human interleukin-2 (ala-125; AMGen Biologicals) per ml.
ATH8 cells were used as the primary target in the HIV induced CPE inhibition assay. Cells were treated with polybrene (2 ug/ml in growth medium) for 30 minutes at 37° C., then collected by gentle centrifugation (40×g for 15 minutes at room temperature) and resuspended in clarified (8000×g for 15 minutes at 4° C.) supernate freshly harvested from 48 hours post passage H9/HTL IIIB cells. Following a 60-minute adsorption period at 37° C., the cells were dispensed into the U-bottom wells of 96-well trays (1×10^4 cells in 0.1 ml per well). […] Test compounds were evaluated at seven half-log dilutions ranging from 100 uq/ml to 0.1 uq/ml. […]
(§2) Between 7 and 10 days post infection, all wells were visually monitored for the degree of CPE inhibition as reflected by cell pellet size, and aliquots were taken from selected wells for determination of cell number and viability (based on trypan blue dye exclusion).

[2] = test system: Human Immunodeficiency Virus (HIV); experiment: HIV CPE inhibition assay in ATH8 cells; assay type: cell-based
Experimental: as §1
The clone H9 cell line is another CD4^+ human T-cell line which is permissive for HIV replication but largely resistant to virus induced CPE. H9 cells productively infected with the HTLV IIIB strain of HIV served as the source of infectious virus. These cells were propagated in RPMI 1640 medium supplemented with glutamine and antibiotics as described above, and with 20% heat-inactivated fetal bovine serum. Freshly harvested, undiluted culture supernatant from the H9/HTLV-IIIB producer cells was used for infectious virus inoculum.
The screening of compounds for antiviral activity was performed using a modification of the CPE inhibition assay originally developed by Broder and co workers. This assay is based on the ability of uninfected ATH8 cells to grow and form a pellet at the bottom of a culture tube. Starting about 4 days after HIV addition, infected ATH8 cells begin to die and the pellet starts to break up. By day 10 a clear differential is observable in the size of the cell pellet in uninfected control wells versus infected control wells. The protective effect of test compounds can be assessed by adding them at varying concentrations to the cultured cells at the time of virus infection, then monitoring the status of the cell pellet.
ATH8 cells were used as the primary target in the HIV induced CPE inhibition assay. Cells were treated with polybrene (2 ug/ml in growth medium) for 30 minutes at 37° C., then collected by gentle centrifugation (40×g for 15 minutes at room temperature) and resuspended in clarified (8000×g for 15 minutes at 4° C.) supernate freshly harvested from 48 hours post passage H9/HTL IIIB cells. Following a 60-minute adsorption period at 37° C., the cells were dispensed into the U-bottom wells of 96-well trays (1×10^4 cells in 0.1 ml per well). An equal volume (0.1 ml) of supplemented RPMI 1640 medium containing test compound and twice the normal concentration of interleukin-2 was then added to each well. Test compounds were evaluated at seven half-log dilutions ranging from 100 uq/ml to 0.1 uq/ml. […]
as §2

## OCC1CC(n2cnc3c(Cl)ncnc32)C1CO (centres unmarked) [Example 4B, 3-(6'-chloro-9'H-purin-9'-yl)-1,2-bis(hydroxymethyl)cyclobutane]
[1]
  MCC: 10 µg/mL
[2]
  VR: 1.1
